Results as given in patent US20210386792A1, “A METHOD FOR INCREASING POPULATION OF SPERMATOGONIAL STEM CELLS” (priority 2018, published 2021).

Tested on: LiECs
Test: GDNF ELISA in conditioned media from LiECs
Type: cell-based
Details: mouse LiECs
Experimental: Testis, lung, or liver ECs were plated (10,000 cells ml^−1) on 12 well dishes coated with 0.1% gelatin and cultured for 24 hours. Conditioned media was harvested at 24 and 48 hours after FGF-2 (2 ng ml^−1, 20 ng ml^−1 and 50 ng ml^−1) treatment and analyzed by ELISA for GDNF (Promega GDNF Emax immunoassay system, #G7621) following the manufacturer's instruction. Statistics was analyzed using Graph Pad Prism. For quantification of Gdnf mRNA, total RNA was isolated from the cells using Direct-zol RNA MiniPrep (Zymo Research) and reverse transcribed using High Capacity cDNA Reverse Transcription Kit (Appliedbiosystems), according to the manufacturer's instructions. All gene expression levels were normalized to GAPDH mRNA levels.
FIG. 2. a. Quantication of GDNF by ELISA in conditioned media from TECs, LuECs and LiECs after treatment with the indicated concentration of FGF-2 for 2 days, n=3. Bar=100 μm. Data are presented as the mean±s.e.m. b. Representative brighteld (BF) and GFP images of 2D cultures of GFP+ SSCs co-cultured with STO cells or TECs plus exogenous GDNF and FGF-2 on days 1 and 8 after seeding. Quantication of stem cell numbers 8 days after co-culture with STO or TECs and the average colony area are shown on the right, n=3. Data are presented as the mean±s.e.m. Bar=100 μm. *P<0.05. c. […]

fibroblast growth factor-2 [FGF-2]
GDNF production in conditioned media of LiECs after FGF-2 treatment: not
